Results taken from patent US20240409536A1, “COMPOUNDS AND METHODS FOR MODULATING SPLICING” (REMIX THERAPEUTICS INC., priority 2021, published 2024).

Experiments:
MYB mRNA = assay: Splicing RT-qPCR assay, MYB canonical (CJ) and alternative (AJ) junction mRNA; format: cell-based; details: Homo sapiens, A673 or K562 cells, 24 hours; for IC50: decrease in canonical junction mRNA; for AC50: increase in alternative junction mRNA
Method in brief: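 Canonical and alternative junction mRNAs measured by cell-lysate one-step RT-qPCR, normalized to PPIA in A673 or GAPDH/GUSB in K562. Cells received compound for 24 h at 37 °C, 5% CO2, 11-point 3-fold series from 10 uM final top dose, DMSO at most 0.25%.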

SMN2 mRNA = assay: Gene panel canonical junction qPCR assay, SMN2 CJ mRNA decrease; format: cell-based, human; details: Homo sapiens, canonical junction qPCR, read-out: SMN2 IC50 (decrease in CJ mRNA levels)
Method in brief: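 IC50 values describe loss of canonical-junction transcript, fitted by 4-parameter logistic to percent response derived from fixed ΔCt windows. Read-out: RT-qPCR on lysates of compound-treated K562 or A673 cells, probes overlapping the exon junction, ΔΔCt versus housekeeping gene and DMSO control.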

Structure (SMILES) | IC50 (MYB mRNA) [nM] | AC50 (MYB mRNA) [nM] | IC50 (SMN2 mRNA) [nM]
C[C@@H]1CN(c2ccc(C(=O)Nc3cc(F)c4nc(Cl)cn4c3)c3nccnc23)C[C@H](C)N1 [Compound 306] | 100 to 1000 | 100 to 1000 | < 100
Cc1cn2cc(NC(=O)c3ccc(N4C[C@@H](C)N[C@@H](C)C4)c4ncc(OC5CC5)nc34)cc(F)c2n1 [Compound 351] | 100 to 1000 | 100 to 1000 | < 100
Cc1cn2cc(NC(=O)c3ccc(N4C[C@@H](C)N[C@@H](C)C4)c4ncc(N(C)C)nc34)cc(F)c2n1 [Compound 283] | < 100 | 100 to 1000 | < 100
Cc1nc2c(F)cc(NC(=O)c3ccc(N4CCNCC4)c4ccnnc34)cc2s1 [Compound 118] | 100 to 1000 | 100 to 1000 | < 100
Cc1cn2cc(NC(=O)c3ccc(N4CCN5CCOC[C@@H]5C4)c4nccnc34)cc(F)c2n1 [Compound 255, (S)—N-(8-fluoro-2-methylimidazo[1,2-a]pyridin-6-yl)-8-(hexahydropyrazino[2,1-c][1,4]oxazin-8(1H)-yl)quinoxaline-5-carboxamide] | 100 to 1000 | 100 to 1000 | 100 to 1000
Cc1cn2cc(NC(=O)c3ccc(N4C5CNCC54)c4nccnc34)cc(F)c2n1 (stereo not drawn) [Compound 262, 8-{3,6-diazabicyclo[3.1.0]hexan-6-yl}-N-{8-fluoro-2-methylimidazo[1,2-a]pyridin-6-yl}quinoxaline-5-carboxamide] | 100 to 1000 | 100 to 1000 | < 100
Cc1cn2cc(NC(=O)c3ccc(N4CCNCC4)c4nccnc34)cc(F)c2n1 [Compound 111] | 100 to 1000 | 100 to 1000 | < 100
C[C@@H]1CN(c2ccc(C(=O)Nc3cc(F)c4nc(O)cn4c3)c3nccnc23)C[C@H](C)N1 [Compound 360] | > 10000 | > 10000 | 1000 to 10000
Cc1cn2cc(NC(=O)c3ccc(N4CC[C@@H](N(C)C)C4)c4nccnc34)cc(F)c2n1 [Compound 242, 8-[(3R)-3-(dimethylamino)pyrrolidin-1-yl]-N-{8-fluoro-2-methylimidazo[1,2-a]pyridin-6-yl}quinoxaline-5-carboxamide] | 100 to 1000 | 1000 to 10000 | < 100
C[C@@H]1CN(c2ccc(C(=O)Nc3cc(F)c4nn(C)cc4c3)c3nccnc23)C[C@@H](C)N1 [Compound 335] | 100 to 1000 | 100 to 1000 | < 100
COc1nc2c(F)cc(NC(=O)c3ccc(N4C[C@@H](C)N[C@@H](C)C4)c4nccnc34)cc2o1 [Compound 342] | > 10000 | > 10000 | 100 to 1000
Cc1cn2cc(NC(=O)c3ccc(N4C[C@@H](C)N[C@H](C)C4)c4nccnc34)cc(F)c2n1 [Compound 312] | < 100 | < 100 | < 100
Cc1cn2cc(NC(=O)c3ccc(N4C[C@@H](C)N[C@@H](C)C4)c4nccnc34)cc(Cl)c2n1 [Compound 304] | < 100 | < 100 | < 100
Cc1cn2cc(NC(=O)c3ccc(N4CC[C@@H](N)C4)c4nccnc34)cc(F)c2n1 [Compound 315] | 100 to 1000 | 1000 to 10000 | < 100
Cc1cn2cc(NC(=O)c3ccc(N4CCN(CCO)C5(CC5)C4)c4nccnc34)cc(F)c2n1 [Compound 369] | 100 to 1000 | 100 to 1000 | < 100
CN[C@@H]1CCN(c2ccc(C(=O)Nc3cc(F)c4nc(C)cn4c3)c3nnccc23)C1 [Compound 238, (R)—N-(8-fluoro-2-methylimidazo[1,2-a]pyridin-6-yl)-5-(3-(methylamino)pyrrolidin-1-yl)cinnoline-8-carboxamide] | < 100 | < 100 | < 100
CNc1nc(NC(=O)c2ccc(N3C[C@@H](C)N[C@@H](C)C3)c3nccnc23)cn2cc(C)nc12 [Compound 308] | 1000 to 10000 | 1000 to 10000 | 100 to 1000
CCN1CCN(c2ccc(C(=O)Nc3cc(F)c4nc(C)cn4c3)c3nccnc23)CC12CC2 [Compound 365] | 100 to 1000 | 100 to 1000 | < 100
COc1nc2ccc(NC(=O)c3ccc(N4C[C@@H](C)N[C@@H](C)C4)c4nccnc34)cc2o1 [Compound 292] | 1000 to 10000 | > 10000 | 1000 to 10000
Cc1cn2cc(NC(=O)c3ccc(N4CC(C)NC(C)C4)c4nc(C)c(C)nc34)cc(F)c2n1 (stereo not drawn) [Compound 257] | 100 to 1000 | 1000 to 10000 | < 100
COc1nc(NC(=O)c2ccc(N3C[C@@H](C)N[C@@H](C)C3)c3nccnc23)nc2cn(C)nc12 [Compound 287] | 1000 to 10000 | > 10000 | 1000 to 10000

Structure (SMILES) | IC50 (MYB mRNA) [nM] | AC50 (MYB mRNA) [nM] | IC50 (SMN2 mRNA) [nM]
Cc1cn2cc(NC(=O)c3ccc(N4CCNC5(CCC5)C4)c4nccnc34)cc(F)c2n1 [Compound 363] | 100 to 1000 | 100 to 1000 | < 100
C[C@@H]1CN(c2ccc(C(=O)Nc3ccc4nc(N(C)C)oc4c3)c3nccnc23)C[C@H](C)N1 [Compound 290] | 1000 to 10000 | > 10000 | > 10000
Cc1cn2cc(NC(=O)c3ccc(N4CC[C@@H](N)C4)c4ccnnc34)cc(F)c2n1 [Compound 270] | 100 to 1000 | < 100 | < 100
Cc1cn2cc(NC(=O)c3ccc(N4CCNCC4)c4ccnnc34)c(C)cc2n1 [Compound 119] | 1000 to 10000 | 1000 to 10000 | < 100
Cc1cn2cc(NC(=O)c3ccc(N4C[C@@H](C)N[C@@H](C5CC5)C4)c4nccnc34)cc(F)c2n1 [Compound 266, 8-((3S,5R)-3-cyclopropyl-5-methylpiperazin-1-yl)-N-(8-fluoro-2-methylimidazo[1,2-a]pyridin-6-yl)quinoxaline-5-carboxamide] | < 100 | < 100 | < 100
Cc1cn2cc(NC(=O)c3ccc(N4CCC5(CCN5)C4)c4nccnc34)cc(F)c2n1 (stereo not drawn) [Compound 339] | 100 to 1000 | 1000 to 10000 | < 100
Cc1cn2cc(NC(=O)c3ccc([C@@]45CCNCC4C5)c4nccnc34)cc(F)c2n1 (stereo in doubt) [Compound 248, 8-{3-azabicyclo[4.1.0]heptan-6-yl}-N-{8-fluoro-2-methylimidazo[1,2-a]pyridin-6-yl}quinoxaline-5-carboxamide 2,2,2-trifluoroacetate] | 100 to 1000 | 100 to 1000 | < 100
COc1cc2c(N3C[C@@H](C)N[C@@H](C)C3)ccc(C(=O)Nc3cc(F)c4nc(C)cn4c3)c2nn1 [Compound 273, 5-[(3R,5S)-3,5-dimethylpiperazin-1-yl]-N-{8-fluoro-2-methylimidazo[1,2-a]pyridin-6-yl}-3-methoxycinnoline-8-carboxamide] | 100 to 1000 | 100 to 1000 | < 100
COc1nc(NC(=O)c2ccc(N3C[C@@H](C)N[C@@H](C)C3)c3nccnc23)cn2cc(C)nc12 [Compound 277] | < 100 | < 100 | < 100
COc1cn2cc(NC(=O)c3ccc(N4C[C@@H](C)N[C@@H](C)C4)c4nccnc34)cc(F)c2n1 [Compound 357] | > 10000 | 1000 to 10000 | 100 to 1000
Cc1cn2cc(NC(=O)c3ccc(N4C[C@@H](C)N[C@@H](C)C4)c4ncc(Cl)nc34)cc(F)c2n1 [Compound 281] | 1000 to 10000 | 1000 to 10000 | 1000 to 10000
Cc1cn2cc(NC(=O)c3ccc(N4CCNCC4)c4ccnnc34)ncc2n1 [Compound 120] | 100 to 1000 | 100 to 1000 | < 100
Cc1cn2nc(NC(=O)c3ccc(N4C[C@@H](C)N[C@@H](C)C4)c4nccnc34)cc2c(C)n1 [Compound 354] | 100 to 1000 | 100 to 1000 | 100 to 1000
CCOc1cnc2c(N3C[C@@H](C)N[C@@H](C)C3)ccc(C(=O)Nc3cc(F)c4nc(C)cn4c3)c2n1 [Compound 296] | < 100 | < 100 | < 100
COc1nc(NC(=O)c2ccc(N3C[C@@H](C)N[C@@H](C)C3)c3nccnc23)cc2cn(C)nc12 [Compound 352] | 100 to 1000 | 100 to 1000 | < 100
Cc1cn2cc(NC(=O)c3ccc(N4C[C@@H](C)N[C@@H](C)C4)c4ncccc34)cc(F)c2n1 [Compound 358] | > 10000 | > 10000 | > 10000
Cc1cn2cc(NC(=O)c3ccc(N4CCC(NC5CC5)CC4)c4nccnc34)cc(F)c2n1 [Compound 258, 8-(4-(cyclopropylamino)piperidin-1-yl)-N-(8-fluoro-2-methylimidazo[1,2-a]pyridin-6-yl)quinoxaline-5-carboxamide] | 100 to 1000 | 100 to 1000 | < 100
COc1cnc2c(N3CC[C@@H](N(C)C)C3)ccc(C(=O)Nc3cc(F)c4nc(C)cn4c3)c2n1 [Compound 244, 8-[(3R)-3-(dimethylamino)pyrrolidin-1-yl]-N-{8-fluoro-2-methylimidazo[1,2-a]pyridin-6-yl}-3-methoxyquinoxaline-5-carboxamide] | < 100 | < 100 | < 100
Cc1cn2c(C)c(NC(=O)c3ccc(N4C[C@@H](C)N[C@@H](C)C4)c4nccnc34)cc(F)c2n1 [Compound 285] | 100 to 1000 | 1000 to 10000 | 100 to 1000
C[C@@H]1CN(c2ccc(C(=O)Nc3cc(F)c4ncccc4c3)c3nccnc23)C[C@H](C)N1 [Compound 344] | 1000 to 10000 | > 10000 | 100 to 1000
